# Measurements as given in the Kinase Knowledgebase extract (Sharma et al. 2016).
# How the values were obtained:
# EGFR (human) [1] = target: EGFR (human) (UniProt P00533); conditions: cal-27
# ROCK2 (human) [2] = target: ROCK2 (human) (UniProt O75116); experiment: Inhibition of ROCK2 Kinase Activity (MLSCN Assay)
# ROCK2 (human) [3] = target: ROCK2 (human) (UniProt O75116); experiment: Inhibition of ROCK2 Kinase Activity
# EGFR (human) [4] = target: EGFR (human) (UniProt P00533)
# PIK3CA (human) [5] = target: PIK3CA (human) (UniProt P42336); experiment: Assessment of Cell Proliferation of MDA-361 Cells
# EGFR (human) [6] = target: EGFR (human) (UniProt P00533); remark: listed apart in the source
# EGFR (human) [7] = target: EGFR (human) (UniProt P00533); remark: listed apart in the source
# PIK3CA (human) [8] = target: PIK3CA (human) (UniProt P42336); experiment: Cellular Inhibition of PIK3CA Kinase in MDA-MB-453 Cells
# EGFR (human) [9] = target: EGFR (human) (UniProt P00533); conditions: mda-mb-468
# EGFR (human) [10] = target: EGFR (human) (UniProt P00533); conditions: a431
# EGFR (human) [11] = target: EGFR (human) (UniProt P00533); remark: listed apart in the source
# EGFR (human) [12] = target: EGFR (human) (UniProt P00533); remark: listed apart in the source
# EGFR (human) [13] = target: EGFR (human) (UniProt P00533); conditions: geo
# EGFR (human) [14] = target: EGFR (human) (UniProt P00533); conditions: pc-9
# EGFR (human) [15] = target: EGFR (human) (UniProt P00533); conditions: geo; remark: listed apart in the source
# EGFR (human) [16] = target: EGFR (human) (UniProt P00533); remark: listed apart in the source
# EGFR (human) [17] = target: EGFR (human) (UniProt P00533); remark: listed apart in the source
# [18] = target: EGFR (human), P00533 [T790M]; conditions: h1975
# EGFR (human) [19] = target: EGFR (human) (UniProt P00533); conditions: a431; remark: listed apart in the source
# EGFR (human) [20] = target: EGFR (human) (UniProt P00533); conditions: a431; remark: listed apart in the source
# EGFR (human) [21] = target: EGFR (human) (UniProt P00533); conditions: a431; remark: listed apart in the source
# PIK3CB (Human) = PIK3CB (Human) (UniProt P42338); experiment: Inhibition of PIK3CB Kinase Activity
# PIK3CD (Human) [22] = target: PIK3CD (Human) (UniProt O00329); experiment: Cellular Inhibition of PIK3CD Kinase in Raji (Burkitt’s Lymphoma) Cells
# PIK3CD (Human) [23] = target: PIK3CD (Human) (UniProt O00329); experiment: Inhibition of PIK3CD Kinase Activity
# PIK3CG (human) = PIK3CG (human) (UniProt P48736); experiment: Inhibition of PIK3CG Kinase Activity
# EGFR (human) [24] = target: EGFR (human) (UniProt P00533); experiment: Assessment of EGFR Kinase Activity
# CDK2 (human) [25] = target: CDK2 (human) (UniProt P24941); experiment: Enzyme Assay
# CDK2 (human) [26] = target: CDK2 (human) (UniProt P24941); experiment: Enzyme Assay; remark: listed apart in the source
# [27] = target: PIK3CA (human), P42336 [Wild-Type]; experiment: Assessment of Proliferation of NZB5 Cells Expressing Wild-Type PIK3CA Kinase
# [28] = target: PIK3CA (human), P42336 [Assessment of Proliferation of NZOV9 Cells Expressing PIK3CA (Mutant) Kinase]; experiment: Assessment of Proliferation of NZOV9 Cells Expressing PIK3CA (Mutant) Kinase
# MAPK14 (human) = MAPK14 (human) (UniProt Q16539); experiment: Assessement of MAPK14 Kinase Activity
# [29] = target: PIK3CA (human), P42336 [H1047R]; experiment: Assessment of PIK3CA(H1047R) Dependent Antiproliferative Activity in KPL-4 Cells
# EGFR = EGFR (UniProt P00533)
# [30] = target: EGFR (human), P00533 [WT]
# EGFR (human) [31] = target: EGFR (human) (UniProt P00533); remark: listed apart in the source
# EGFR (human) [32] = target: EGFR (human) (UniProt P00533); conditions: h1975
# EGFR (human), sequence (P00533 whole entry, looked up): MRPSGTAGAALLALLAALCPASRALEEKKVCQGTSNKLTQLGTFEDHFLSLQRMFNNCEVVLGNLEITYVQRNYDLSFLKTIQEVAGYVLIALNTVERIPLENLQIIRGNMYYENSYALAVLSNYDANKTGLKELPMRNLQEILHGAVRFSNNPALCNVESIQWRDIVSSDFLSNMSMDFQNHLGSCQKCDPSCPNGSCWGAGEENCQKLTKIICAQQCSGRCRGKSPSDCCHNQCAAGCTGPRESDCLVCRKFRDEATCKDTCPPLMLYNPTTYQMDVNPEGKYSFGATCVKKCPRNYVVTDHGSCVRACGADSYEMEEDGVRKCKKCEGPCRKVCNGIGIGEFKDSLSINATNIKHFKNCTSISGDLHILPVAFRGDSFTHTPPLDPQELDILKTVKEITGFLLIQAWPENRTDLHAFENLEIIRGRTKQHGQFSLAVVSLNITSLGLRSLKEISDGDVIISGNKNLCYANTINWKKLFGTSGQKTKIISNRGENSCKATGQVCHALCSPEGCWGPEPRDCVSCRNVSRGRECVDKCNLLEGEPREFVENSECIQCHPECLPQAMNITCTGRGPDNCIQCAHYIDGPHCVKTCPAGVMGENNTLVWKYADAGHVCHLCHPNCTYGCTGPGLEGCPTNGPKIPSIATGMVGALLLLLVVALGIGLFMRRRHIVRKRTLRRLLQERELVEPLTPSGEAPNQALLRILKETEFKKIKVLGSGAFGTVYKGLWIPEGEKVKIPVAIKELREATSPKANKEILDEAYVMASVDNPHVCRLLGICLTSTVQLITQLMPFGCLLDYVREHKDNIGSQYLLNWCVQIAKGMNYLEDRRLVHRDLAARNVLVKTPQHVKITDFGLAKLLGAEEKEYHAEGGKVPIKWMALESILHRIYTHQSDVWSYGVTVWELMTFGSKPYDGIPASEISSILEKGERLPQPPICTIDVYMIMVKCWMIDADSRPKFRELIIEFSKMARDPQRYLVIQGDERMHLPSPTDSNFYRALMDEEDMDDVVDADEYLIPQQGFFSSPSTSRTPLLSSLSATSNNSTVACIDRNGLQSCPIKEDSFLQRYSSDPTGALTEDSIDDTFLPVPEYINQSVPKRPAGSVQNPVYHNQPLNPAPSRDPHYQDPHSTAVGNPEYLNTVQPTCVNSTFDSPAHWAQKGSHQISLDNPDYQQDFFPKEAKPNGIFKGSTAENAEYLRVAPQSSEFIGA
# PIK3CD (Human), sequence (O00329 whole entry, looked up): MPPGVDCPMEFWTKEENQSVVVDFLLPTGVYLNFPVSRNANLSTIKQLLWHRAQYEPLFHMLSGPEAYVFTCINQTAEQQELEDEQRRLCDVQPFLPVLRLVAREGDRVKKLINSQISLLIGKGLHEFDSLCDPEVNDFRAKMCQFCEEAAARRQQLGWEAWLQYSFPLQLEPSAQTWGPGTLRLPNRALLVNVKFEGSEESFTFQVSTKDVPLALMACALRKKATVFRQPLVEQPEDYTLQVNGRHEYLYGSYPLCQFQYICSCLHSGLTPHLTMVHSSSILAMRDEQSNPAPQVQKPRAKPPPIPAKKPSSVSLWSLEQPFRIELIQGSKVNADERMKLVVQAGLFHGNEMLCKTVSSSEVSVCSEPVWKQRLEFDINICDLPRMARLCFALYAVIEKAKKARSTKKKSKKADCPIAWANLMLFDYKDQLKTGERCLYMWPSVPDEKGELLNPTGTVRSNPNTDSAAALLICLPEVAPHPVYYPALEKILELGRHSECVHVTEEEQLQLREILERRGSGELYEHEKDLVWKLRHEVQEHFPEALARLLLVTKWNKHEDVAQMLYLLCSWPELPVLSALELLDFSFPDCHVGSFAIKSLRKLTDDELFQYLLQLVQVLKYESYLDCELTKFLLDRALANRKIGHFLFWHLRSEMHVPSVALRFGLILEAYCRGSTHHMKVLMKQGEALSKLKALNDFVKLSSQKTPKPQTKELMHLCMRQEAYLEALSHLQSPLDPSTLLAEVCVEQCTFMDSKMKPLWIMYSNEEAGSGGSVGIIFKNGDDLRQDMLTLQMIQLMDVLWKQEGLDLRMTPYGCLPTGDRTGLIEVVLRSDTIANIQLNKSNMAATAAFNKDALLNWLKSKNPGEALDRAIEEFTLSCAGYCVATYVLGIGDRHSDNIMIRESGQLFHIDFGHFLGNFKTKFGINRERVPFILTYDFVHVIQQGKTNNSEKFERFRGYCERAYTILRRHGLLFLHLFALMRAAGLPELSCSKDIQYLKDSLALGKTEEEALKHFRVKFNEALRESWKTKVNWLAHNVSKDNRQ
# PIK3CA (human), sequence (P42336 whole entry, looked up): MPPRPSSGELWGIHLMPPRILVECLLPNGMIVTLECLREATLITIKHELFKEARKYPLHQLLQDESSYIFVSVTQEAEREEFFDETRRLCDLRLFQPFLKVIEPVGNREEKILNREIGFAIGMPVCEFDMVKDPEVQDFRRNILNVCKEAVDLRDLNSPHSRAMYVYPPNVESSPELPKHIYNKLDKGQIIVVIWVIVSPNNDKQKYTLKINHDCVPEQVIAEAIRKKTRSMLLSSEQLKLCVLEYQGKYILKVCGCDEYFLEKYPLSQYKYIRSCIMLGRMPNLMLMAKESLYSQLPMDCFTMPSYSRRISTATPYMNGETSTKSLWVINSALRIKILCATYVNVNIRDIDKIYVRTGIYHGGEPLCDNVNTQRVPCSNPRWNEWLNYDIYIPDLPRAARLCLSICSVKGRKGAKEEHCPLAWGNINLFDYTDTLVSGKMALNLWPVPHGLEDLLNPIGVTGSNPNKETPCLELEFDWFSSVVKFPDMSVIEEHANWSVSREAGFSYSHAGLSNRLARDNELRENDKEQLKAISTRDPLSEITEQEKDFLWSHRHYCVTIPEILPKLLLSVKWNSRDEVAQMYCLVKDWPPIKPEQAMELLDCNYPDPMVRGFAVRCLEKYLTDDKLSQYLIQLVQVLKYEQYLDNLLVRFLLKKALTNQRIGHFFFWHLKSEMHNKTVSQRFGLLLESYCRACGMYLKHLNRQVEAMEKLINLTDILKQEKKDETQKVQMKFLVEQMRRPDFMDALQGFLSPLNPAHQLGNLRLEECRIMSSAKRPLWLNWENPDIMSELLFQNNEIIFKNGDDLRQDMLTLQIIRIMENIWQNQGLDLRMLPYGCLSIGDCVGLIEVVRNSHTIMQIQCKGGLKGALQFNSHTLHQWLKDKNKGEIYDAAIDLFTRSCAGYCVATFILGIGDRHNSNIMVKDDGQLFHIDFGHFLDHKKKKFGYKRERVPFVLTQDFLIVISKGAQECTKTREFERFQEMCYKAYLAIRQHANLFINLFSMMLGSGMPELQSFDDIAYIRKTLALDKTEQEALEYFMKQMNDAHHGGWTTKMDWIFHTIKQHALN
# ROCK2 (human), sequence (O75116 whole entry, looked up): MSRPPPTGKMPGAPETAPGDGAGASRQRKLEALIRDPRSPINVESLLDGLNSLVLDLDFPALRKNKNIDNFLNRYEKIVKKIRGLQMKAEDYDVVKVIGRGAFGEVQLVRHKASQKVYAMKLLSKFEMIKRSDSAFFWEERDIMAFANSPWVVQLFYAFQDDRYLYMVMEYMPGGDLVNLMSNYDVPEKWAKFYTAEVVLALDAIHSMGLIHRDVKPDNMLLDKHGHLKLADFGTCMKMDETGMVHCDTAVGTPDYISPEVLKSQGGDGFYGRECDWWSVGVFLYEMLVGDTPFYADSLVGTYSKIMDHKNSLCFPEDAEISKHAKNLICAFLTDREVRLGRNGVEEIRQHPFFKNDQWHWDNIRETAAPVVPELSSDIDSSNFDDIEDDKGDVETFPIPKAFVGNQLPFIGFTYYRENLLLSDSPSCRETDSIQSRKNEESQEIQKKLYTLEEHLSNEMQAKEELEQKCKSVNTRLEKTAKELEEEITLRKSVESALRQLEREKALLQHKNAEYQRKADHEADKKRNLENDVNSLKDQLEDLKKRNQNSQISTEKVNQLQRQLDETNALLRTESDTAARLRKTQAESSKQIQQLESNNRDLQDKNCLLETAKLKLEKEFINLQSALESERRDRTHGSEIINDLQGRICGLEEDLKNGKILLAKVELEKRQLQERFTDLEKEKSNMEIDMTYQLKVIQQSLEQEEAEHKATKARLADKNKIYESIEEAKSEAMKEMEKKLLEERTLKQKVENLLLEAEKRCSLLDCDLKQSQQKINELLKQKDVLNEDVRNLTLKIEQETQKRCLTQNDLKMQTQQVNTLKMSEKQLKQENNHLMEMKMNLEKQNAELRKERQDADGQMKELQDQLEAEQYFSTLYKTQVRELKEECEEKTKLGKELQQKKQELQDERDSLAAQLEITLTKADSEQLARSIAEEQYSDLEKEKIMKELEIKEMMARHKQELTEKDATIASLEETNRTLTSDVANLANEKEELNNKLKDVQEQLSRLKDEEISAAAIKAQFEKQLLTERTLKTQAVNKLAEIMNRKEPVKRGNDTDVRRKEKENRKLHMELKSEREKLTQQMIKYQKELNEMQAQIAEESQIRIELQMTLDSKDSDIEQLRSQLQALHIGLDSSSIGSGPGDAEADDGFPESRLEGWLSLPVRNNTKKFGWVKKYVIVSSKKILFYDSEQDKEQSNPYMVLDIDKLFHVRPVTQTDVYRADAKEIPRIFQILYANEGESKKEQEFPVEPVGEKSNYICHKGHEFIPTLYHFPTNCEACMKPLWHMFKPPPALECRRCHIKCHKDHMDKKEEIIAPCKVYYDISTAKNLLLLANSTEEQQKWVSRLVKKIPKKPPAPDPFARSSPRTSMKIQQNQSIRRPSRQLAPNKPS
# MAPK14 (human), sequence (Q16539 whole entry, looked up): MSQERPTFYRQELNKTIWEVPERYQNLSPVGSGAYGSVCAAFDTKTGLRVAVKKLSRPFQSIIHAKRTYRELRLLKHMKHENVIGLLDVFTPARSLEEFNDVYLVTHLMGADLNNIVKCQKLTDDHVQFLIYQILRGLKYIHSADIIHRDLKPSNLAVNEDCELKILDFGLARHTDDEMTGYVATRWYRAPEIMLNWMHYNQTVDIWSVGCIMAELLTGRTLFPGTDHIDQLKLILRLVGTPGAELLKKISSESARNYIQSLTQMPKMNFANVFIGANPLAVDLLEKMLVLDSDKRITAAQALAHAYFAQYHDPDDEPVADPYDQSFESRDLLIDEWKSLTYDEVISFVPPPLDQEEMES
# PIK3CA (human), P42336 [Wild-Type], sequence (P42336 whole entry, looked up): as the sequence (P42336 whole entry, looked up) above
compound,measurement,setting,value
Nc1ccccc1NC(=O)/C=C/c1cccc(-c2ccc3ncnc(Nc4ccc(OCc5cccc(F)c5)c(Cl)c4)c3c2)c1,IC50,EGFR (human) [1],> 16000 nM
O=C(Nc1nc(-c2ccncc2)cs1)C1COc2ccccc2O1 (stereo unspecified),IC50,ROCK2 (human) [2],< 3 nM
same,IC50,ROCK2 (human) [3],40 nM
CC(=O)Nc1ccc(C(=O)Nc2sc(Nc3ccccc3)nc2C(N)=O)cc1,IC50,EGFR (human) [4],69 nM
CC(C)n1nnc2c(N3CCOCC3)nc(-c3ccc(NC(=O)Nc4ccc(CO)cc4)cc3)nc21,IC50,PIK3CA (human) [5],< 30 nM
O=C(NCCN1CCCC1)c1cc2n(c1)CCc1c(NC(=O)c3ccccc3Cl)n[nH]c1-2,IC50,EGFR (human) [6],7870 nM
COc1ccccc1Cc1nc2ccc(-c3nn([C@H]4CC[C@H](N5CCN(C)CC5)CC4)c4ncnc(N)c34)cc2[nH]1,IC50,EGFR (human) [7],58 nM
CC(C)(Cc1ccccc1C1CCN(S(C)(=O)=O)CC1)Nc1nc(N2CCOCC2)nc(-n2c(C(F)F)nc3ccccc32)n1,IC50,PIK3CA (human) [8],200 to 500 nM
COc1cc2ncc([N+](=O)[O-])c(Nc3ccc(Cl)c(F)c3)c2cc1OCc1ccccc1,IC50,EGFR (human) [9],220 nM
same,IC50,EGFR (human) [10],400 nM
OC[C@H]1CCCN1Cc1ccc(Nc2nc3ncnc(Nc4ccc(F)c(Cl)c4)c3s2)cc1,IC50,EGFR (human) [11],11 nM
COc1cc2ncnc(NCc3ccc(F)c(Cl)c3)c2cc1OCCCCCCC(=O)NO,IC50,EGFR (human) [12],72 nM
Cc1c(NC(=O)OC[C@@H]2COCCN2)cn2ncnc(Nc3ccc4c(cnn4Cc4cccc(F)c4)c3)c12,IC50,EGFR (human) [13],900 nM
same,IC50,EGFR (human) [14],340 nM
same,IC50,EGFR (human) [15],750 nM
same,IC50,EGFR (human) [16],20 nM
same,IC50,EGFR (human) [17],22 nM
O=C(CCN1CCOCC1)Nc1ccc2ncnc(Nc3cccc(Br)c3)c2c1,IC50,[18],> 20000 nM
N.N.[Cl][Pt][Cl],IC50,EGFR (human) [19],7650 nM
same,IC50,EGFR (human) [20],8200 nM
same,IC50,EGFR (human) [21],10600 nM
CC(C)(Cc1ccccc1Br)Nc1nc(N2CCOCC2)nc(-n2c(C(F)F)nc3ccccc32)n1,IC50,PIK3CB (Human),< 100 nM
same,IC50,PIK3CD (Human) [22],< 100 nM
same,IC50,PIK3CD (Human) [23],< 100 nM
same,IC50,PIK3CG (human),200 to 500 nM
O=C1Nc2ccc(Br)cc2/C1=C1/Nc2ccccc2C1=NO,IC50,EGFR (human) [24],> 100000 nM
same,IC50,CDK2 (human) [25],460 nM
same,IC50,CDK2 (human) [26],120 nM
N#Cc1cccc2c1nc(C(F)F)n2-c1nc(N2CCOCC2)nc(N2CCOCC2)n1,IC50,[27],> 20000 nM
same,IC50,[28],> 20000 nM
CCc1nc(-c2cccc(C)c2)c(-c2ccnc(N=S(=O)(c3ccccc3)C3CC3)c2)s1 (stereo unspecified),IC50,MAPK14 (human),780 nM
Oc1cccc(-c2nc(N3CCOCC3)nc3c2CCN3c2cccnc2)c1,IC50,[29],450 nM
Brc1cccc(Nc2ncnc3ccccc23)c1,IC50,EGFR,126 nM
same,IC50,[30],27 nM
CCOC(=O)[C@@H]1O[C@H]1C(=O)Nc1ccc2ncnc(Nc3cccc(Br)c3)c2c1,IC50,EGFR (human) [31],0.5 nM
same,IC50,EGFR (human) [32],6760 nM
